From patent publication US9133158B2, “Bicyclic dihydroisoquinoline-1-one derivatives” (Hoffmann-La Roche Inc., priority 2011, dated 2015)

Legend:
human CYP11B1 = target: T1, human CYP11B1 (Homo sapiens, UniProt P15538); test: G-402 cellular enzyme assay, human CYP11B1 (cortisol release, HTRF); assay type: cell-based; conditions: G-402 cells, 1 μM Deoxycortisol
T1 construct: expressed in transfected cells
T1 sequence (P15538 25-503): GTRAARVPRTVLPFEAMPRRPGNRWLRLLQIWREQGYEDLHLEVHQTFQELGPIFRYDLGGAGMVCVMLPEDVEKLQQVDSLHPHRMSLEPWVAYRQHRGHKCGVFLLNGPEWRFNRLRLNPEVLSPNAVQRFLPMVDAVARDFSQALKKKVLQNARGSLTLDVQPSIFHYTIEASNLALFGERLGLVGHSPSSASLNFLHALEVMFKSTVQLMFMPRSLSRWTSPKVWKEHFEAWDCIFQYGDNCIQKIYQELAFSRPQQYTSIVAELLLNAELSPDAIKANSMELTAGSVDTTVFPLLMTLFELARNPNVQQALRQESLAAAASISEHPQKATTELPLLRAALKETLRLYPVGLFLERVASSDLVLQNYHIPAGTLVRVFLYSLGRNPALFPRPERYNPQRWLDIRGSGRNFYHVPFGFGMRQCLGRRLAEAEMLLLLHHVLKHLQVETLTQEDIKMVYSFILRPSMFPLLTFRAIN
Summary of the method: (§1)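 Inhibition of steroid release was taken as enzyme inhibition. CYP11B1 assays used 1 μM deoxycortisol with cortisol detection, CYP11B2 assays 1 μM deoxycorticosterone with aldosterone detection, both by HTRF after 16 h in stable G-402 cells; EC50 from least-squares MMF fit.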

human CYP11B2 = target: T2, human CYP11B2 (Homo sapiens, UniProt P19099); test: G-402 cellular enzyme assay, human CYP11B2 (aldosterone release, HTRF); assay type: cell-based; conditions: G-402 cells, 1 μM Deoxycorticosterone
T2 construct: expressed in transfected cells
T2 sequence (P19099 25-503): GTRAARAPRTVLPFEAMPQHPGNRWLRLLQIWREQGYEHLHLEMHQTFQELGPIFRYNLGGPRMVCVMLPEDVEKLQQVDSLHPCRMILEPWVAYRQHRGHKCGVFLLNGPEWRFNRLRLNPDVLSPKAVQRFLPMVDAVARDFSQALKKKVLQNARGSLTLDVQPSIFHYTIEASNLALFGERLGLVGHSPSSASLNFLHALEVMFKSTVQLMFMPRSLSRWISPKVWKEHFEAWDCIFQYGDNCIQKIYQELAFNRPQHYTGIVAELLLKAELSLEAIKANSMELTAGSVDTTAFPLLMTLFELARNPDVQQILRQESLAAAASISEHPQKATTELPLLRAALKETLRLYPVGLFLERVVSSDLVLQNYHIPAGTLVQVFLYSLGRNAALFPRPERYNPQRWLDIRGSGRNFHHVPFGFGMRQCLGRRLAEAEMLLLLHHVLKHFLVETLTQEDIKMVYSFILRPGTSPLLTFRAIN
Summary of the method: as §1

Row | EC50 (human CYP11B1) | EC50 (human CYP11B2) | Compound
1 | 988 nM | 16.6 nM | CC(=O)N1CCC(Oc2cncc(N3C(=O)c4ccc(Cl)cc4C3(C)C)c2)C1 (stereo not drawn) [Example 441, 2-[5-(1-Acetyl-pyrrolidin-3-yloxy)-pyridin-3-yl]-5-chloro-3,3-dimethyl-2,3-dihydro-isoindol-1-one]
2 | 337 nM | 43.9 nM | O=C1c2ccc(Cl)cc2CCN1c1cncc(CN2CCS(=O)(=O)CC2)c1 [Example 156, 6-Chloro-2-[5-(1,1-dioxo-1λ^6-thiomorpholin-4-ylmethyl)-pyridin-3-yl]-3,4-dihydro-2H-isoquinolin-1-one]
3 | 122 nM | 9.1 nM | Cc1n[nH]cc1-c1cncc(N2CCc3cc(Cl)ccc3C2=O)c1 [Example 419, 6-Chloro-2-[5-(3-methyl-1H-pyrazol-4-yl)-pyridin-3-yl]-3,4-dihydro-2H-isoquinolin-1-one]
4 | 737 nM | 2000 nM | CC[C@H]1c2cc(Cl)ccc2C(=O)N1c1cncc2c1CCC[C@@H]2NC(C)=O (single isomer, unassigned) [Example 356, N-[(S or R)-4-((S or R)-5-Chloro-3-ethyl-1-oxo-1,3-dihydro-isoindol-2-yl)-5,6,7,8-tetrahydro-isoquinolin-8-yl]-acctamide]
5 | 656 nM | 105 nM | O=C1c2ccc(Cl)cc2CCN1c1cncc(Cn2ccnn2)c1 [Example 175, 6-Chloro-2-(5-[1,2,3]triazol-1-ylmethyl-pyridin-3-yl)-3,4-dihydro-2H-isoquinolin-1-one]
6 | 7540 nM | 154 nM | COCc1ccncc1N1CCc2cc(Cl)ccc2C1=O [Example 69, 6-Chloro-2-(4-methoxymethyl-pyridin-3-yl)-3,4-dihydro-2H-isoquinolin-1-one]
7 | 7470 nM | 4580 nM | CC(C)C(=O)Nc1cncc(N2CCc3cc(Cl)ccc3C2=O)c1 [Example 247, N-[5-(6-Chloro-1-oxo-3,4-dihydro-1H-isoquinolin-2-yl)-pyridin-3-yl]-isobutyramide]
8 | 278 nM | 39.1 nM | O=C1c2ccc(Cl)cc2CCN1c1cncc(Cc2ccccc2C(F)(F)F)c1 [Example 213, 6-Chloro-2-[5-(2-trifluoromethyl-benzyl)-pyridin-3-yl]-3,4-dihydro-2H-isoquinolin-1-one]
9 | 16200 nM | 396 nM | CCC(=O)N[C@@H]1CCCc2c1cncc2N1C(=O)c2ccc(Cl)cc2[C@@H]1CC (single isomer, unassigned) [Example 353, N-[(R or S)-4-((S or R)-5-Chloro-3-ethyl-1-oxo-1,3-dihydro-isoindol-2-yl)-5,6,7,8-tetrahydro-isoquinolin-8-yl]-propionamide]
10 | 14200 nM | 88.3 nM | O=C1c2ccc(Cl)cc2CN1c1cncc2c1CCC[C@@H]2O [Example 340, 5-Chloro-2-((S)-8-hydroxy-5,6,7,8-tetrahydro-isoquinolin-4-yl)-2,3-dihydro-isoindol-1-one]
11 | 47.2 nM | 2.4 nM | Cn1ncc(Cl)c1-c1cncc(N2C(=O)c3ccc(Cl)cc3C2(C)C)c1 [Example 427, 5-Chloro-2-[5-(4-chloro-2-methyl-2H-pyrazol-3-yl)-pyridin-3-yl]-3,3-dimethyl-2,3-dihydro-isoindol-1-one]
12 | 11100 nM | 600 nM | C[S+]([O-])c1cncc(N2CCc3cc(Cl)ccc3C2=O)c1 (stereo not drawn) [Example 279, 6-Chloro-2-(5-methanesulfinyl-pyridin-3-yl)-3,4-dihydro-2H-isoquinolin-1-one]
13 | 257 nM | 12.7 nM | CC(C)Oc1cncc(N2CCc3cc(Cl)ccc3C2=O)c1 [Example 11, 6-Chloro-2-(5-isopropoxy-pyridin-3-yl)-3,4-dihydro-2H-isoquinolin-1-one]
14 | 1020 nM | 63.7 nM | Cc1c(-c2cncc(N3CCc4cc(Cl)ccc4C3=O)c2)cnn1C [Example 423, 6-Chloro-2-[5-(1,5-dimethyl-1H-pyrazol-4-yl)-pyridin-3-yl]-3,4-dihydro-2H-isoquinolin-1-one]
15 | 69.7 nM | 6.9 nM | O=C1c2ccc(Cl)cc2CCN1c1cncc(C2CC2)c1 [Example 66, 6-Chloro-2-(5-cyclopropyl-pyridin-3-yl)-3,4-dihydro-2H-isoquinolin-1-one]
16 | 7950 nM | 282 nM | CCC(=O)NCc1cncc(N2C(=O)c3ccc(Cl)cc3C2(C)C)c1 [Example 397, N-[5-(6-Chloro-1,1-dimethyl-3-oxo-1,3-dihydro-isoindol-2-yl)-pyridin-3-ylmethyl]-propionamide]
17 | 14000 nM | 775 nM | CC1Cc2cccc(Cl)c2C(=O)N1c1cccnc1 (stereo not drawn) [Example 93, 8-Chloro-3-methyl-2-pyridin-3-yl-3,4-dihydro-2H-isoquinolin-1-one]
18 | 1100 nM | 55 nM | C[C@@H](O)c1cncc(N2CCc3cc(Cl)ccc3C2=O)c1 [Example 14, 6-Chloro-2-[5-((R)-1-hydroxy-ethyl)-pyridin-3-yl]-3,4-dihydro-2H-isoquinolin-1-one]
19 | 58.1 nM | 4.7 nM | Cc1ncn(C)c1-c1cncc(N2CCc3cc(Cl)ccc3C2=O)c1 [Example 80, 6-Chloro-2-[5-(3,5-dimethyl-3H-imidazol-4-yl)-pyridin-3-yl]-3,4-dihydro-2H-isoquinolin-1-one]
20 | 328 nM | 50.2 nM | O=C1c2ccc(Cl)cc2CCN1c1cncc(C(O)c2ccc(F)c(F)c2)c1 (stereo not drawn) [Example 31, 6-Chloro-2-{5-[(3,4-difluoro-phenyl)-hydroxy-methyl]-pyridin-3-yl}-3,4-dihydro-2H-isoquinolin-1-one]
21 | 343 nM | 80.3 nM | O=C1c2ccc(Cl)cc2CCN1c1cncc(NCc2ccc(F)cc2)c1 [Example 222, 6-Chloro-2-[5-(4-fluoro-benzylamino)-pyridin-3-yl]-3,4-dihydro-2H-isoquinolin-1-one]
22 | 1270 nM | 17.6 nM | Cc1ccncc1C(=O)NCc1cncc(N2C(=O)c3ccc(Cl)cc3C2(C)C)c1 [Example 440, N-[5-(6-Chloro-1,1-dimethyl-3-oxo-1,3-dihydro-isoindol-2-yl)-pyridin-3-ylmethyl]-4-methyl-nicotinamide]
23 | 2300 nM | 281 nM | CCC(=O)NCc1cncc(N2C(=O)c3ccc(F)cc3C2(C)C)c1 [Example 398, N-[5-(6-Fluoro-1,1-dimethyl-3-oxo-1,3-dihydro-isoindol-2-yl)-pyridin-3-ylmethyl]-propionamide]
24 | 105 nM | 26.7 nM | O=C1c2ccc(Cl)cc2CCN1c1cncc(CNc2cccc(Cl)c2)c1 [Example 261, 6-Chloro-2-{5-[(3-chloro-phenylamino)-methyl]-pyridin-3-yl}-3,4-dihydro-2H-isoquinolin-1-one]
25 | 1210 nM | 30 nM | O=C1c2ccc(Cl)cc2CCN1c1cnccc1Cl [Example 6, 6-Chloro-2-(4-chloro-pyridin-3-yl)-3,4-dihydro-2H-isoquinolin-1-one]
26 | 3920 nM | 101 nM | Cc1cc(C)n(Cc2cncc(N3CCc4cc(Cl)ccc4C3=O)c2)n1 [Example 151, 6-Chloro-2-[5-(3,5-dimethyl-pyrazol-1-ylmethyl)-pyridin-3-yl]-3,4-dihydro-2H-isoquinolin-1-one]
27 | 10100 nM | 2160 nM | O=C1c2ccc(Cl)cc2CCN1c1cncc(NS(=O)(=O)C2CC2)c1 [Example 221, Cyclopropanesulfonic acid [5-(6-chloro-1-oxo-3,4-dihydro-1H-isoquinolin-2-yl)-pyridin-3-yl]-amide]
28 | 168 nM | 47.9 nM | CN1CCN(Cc2cncc(N3CCc4cc(Cl)ccc4C3=O)c2)CC1 [Example 167, 6-Chloro-2-[5-(4-methyl-piperazin-1-ylmethyl)-pyridin-3-yl]-3,4-dihydro-2H-isuquinolin-1-one]
29 | 912 nM | 44.4 nM | CC1(C)c2cc(Cl)ccc2C(=O)N1c1cncc(CNC(=O)c2ncccc2Cl)c1 [Example 431, 3-Chloro-pyridine-2-carboxylic acid [5-(6-chloro-1,1-dimethyl-3-oxo-1,3-dihydro-isoindol-2-yl)-pyridin-3-ylmethyl]-amide]
30 | 10800 nM | 120 nM | O=c1c2ccc(Cl)cc2ccn1-c1cccnc1 [Example 53, 6-Chloro-2-pyridin-3-yl-2H-isoquinolin-1-one]
